Measurements: US20220119354A1, “DIAMINO-SUBSTITUTED PYRIDINES AND PYRIMIDINES AS HERBICIDES” (FMC Corporation, priority 2019, published 2022)

Assays:
Assay type in all cases: in vivo
[1] = test system: galium (catchweed bedstraw, Galium aparine); experiment: Test A postemergence, galium; settings: 0 to 100 scale
How it was run: (§1)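 Ratings reflect visual comparison with untreated controls roughly 10 d after greenhouse application, 0 meaning no effect and 100 complete control. Treatment was by directed soil spray at planting or by spray onto one- to two-leaf plants in loam/sand pots.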

[2] = test system: ryegrass, Italian (Lolium multiflorum); experiment: Test A postemergence, Italian ryegrass; settings: 0 to 100 scale
How it was run: as §1

[3] = test system: foxtail, giant (Setaria faberii); experiment: Test A preemergence, giant foxtail; settings: 0 to 100 scale
How it was run: as §1

corn (Zea mays) = experiment: Test A postemergence, corn; settings: 0 to 100 scale
How it was run: as §1

[4] = test system: sedge, umbrella (small-flower umbrella sedge, Cyperus difformis); experiment: Test B flooded paddy test, umbrella sedge; settings: Flood, 250 g ai/ha, applied to paddy water, 2-leaf stage, visual evaluation after 13 to 15 d
How it was run: (§2)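 Visual injury scores run from 0 (no effect) to 100 (complete control), assigned by comparison with controls 13 to 15 d after treatment. Treatment went into floodwater standing 3 cm over the soil of pots holding 2-leaf plants.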

[5] = test system: ragweed (common ragweed, Ambrosia elatior); experiment: Test A postemergence, ragweed; settings: 0 to 100 scale
How it was run: as §1

[6] = test system: pigweed (Amaranthus retroflexus); experiment: Test A postemergence, pigweed; settings: 0 to 100 scale
How it was run: as §1

[7] = test system: wheat (Triticum aestivum); experiment: Test A postemergence, wheat; settings: 0 to 100 scale
How it was run: as §1

[8] = test system: ducksalad (Heteranthera limosa); experiment: Test B flooded paddy test, ducksalad; settings: Flood, 250 g ai/ha, applied to paddy water, 2-leaf stage, visual evaluation after 13 to 15 d
How it was run: as §2

kochia (Kochia scoparia) [9] = experiment: Test A preemergence, kochia; settings: 0 to 100 scale
How it was run: as §1

kochia (Kochia scoparia) [10] = experiment: Test A postemergence, kochia; settings: 0 to 100 scale
How it was run: as §1

[11] = test system: barnyardgrass (Echinochloa crus-galli); experiment: Test A preemergence, barnyardgrass; settings: 0 to 100 scale
How it was run: as §1

[12] = test system: barnyardgrass (Echinochloa crus-galli); experiment: Test A postemergence, barnyardgrass; settings: 0 to 100 scale
How it was run: as §1

[13] = test system: blackgrass (Alopecurus myosuroides); experiment: Test A postemergence, blackgrass; settings: 0 to 100 scale
How it was run: as §1

[14] = test system: ragweed (common ragweed, Ambrosia elatior); experiment: Test A preemergence, ragweed; settings: 0 to 100 scale
How it was run: as §1

[15] = test system: barnyardgrass (Echinochloa crus-galli); experiment: Test B flooded paddy test, barnyardgrass; settings: Flood, 250 g ai/ha, applied to paddy water, 2-leaf stage, visual evaluation after 13 to 15 d
How it was run: as §2

rice (Oryza sativa) = experiment: Test B flooded paddy test, rice; settings: Flood, 250 g ai/ha, applied to paddy water, 2-leaf stage, visual evaluation after 13 to 15 d
How it was run: as §2

[16] = test system: pigweed (Amaranthus retroflexus); experiment: Test A preemergence, pigweed; settings: 0 to 100 scale
How it was run: as §1

[17] = test system: foxtail, giant (Setaria faberii); experiment: Test A postemergence, giant foxtail; settings: 0 to 100 scale
How it was run: as §1

[18] = test system: ryegrass, Italian (Lolium multiflorum); experiment: Test A preemergence, Italian ryegrass; settings: 0 to 100 scale
How it was run: as §1

| SMILES | Plant response rating, Galium ([1]; 125 g ai/ha) | Plant response rating, Galium ([1]; 500 g ai/ha) | Plant response rating, Ryegrass, Italian ([2]; 125 g ai/ha) | Plant response rating, Ryegrass, Italian ([2]; 500 g ai/ha) | Plant response rating, Foxtail, Giant ([3]; 125 g ai/ha) | Plant response rating, Foxtail, Giant ([3]; 500 g ai/ha) | Plant response rating, Corn (corn (Zea mays); 125 g ai/ha) | Plant response rating, Corn (corn (Zea mays); 500 g ai/ha) | Plant response rating, Sedge, Umbrella (0 to 100 scale, 0 is no effect, 100 is complete control) [4] | Plant response rating, Ragweed ([5]; 125 g ai/ha) | Plant response rating, Ragweed ([5]; 500 g ai/ha) | Plant response rating, Pigweed ([6]; 125 g ai/ha) | Plant response rating, Pigweed ([6]; 500 g ai/ha) | Plant response rating, Wheat ([7]; 125 g ai/ha) | Plant response rating, Wheat ([7]; 500 g ai/ha) | Plant response rating, Ducksalad (0 to 100 scale, 0 is no effect, 100 is complete control) [8] | Plant response rating, Kochia (kochia (Kochia scoparia) [9]; 125 g ai/ha) | Plant response rating, Kochia (kochia (Kochia scoparia) [9]; 500 g ai/ha) | Plant response rating, Kochia (kochia (Kochia scoparia) [10]; 125 g ai/ha) | Plant response rating, Kochia (kochia (Kochia scoparia) [10]; 500 g ai/ha) | further results |
| --- | --- | --- | --- | --- | --- | --- | --- | --- | --- | --- | --- | --- | --- | --- | --- | --- | --- | --- | --- | --- | --- |
| C[C@@H](Nc1ncc(C(F)(F)F)c(N)n1)c1cc2cc(F)ccc2o1 [Compound 9] | 80 | 80 | 0 | 30 | 40 | 90 | 0 | 20 | 0 | 60 | 80 | 90 | 90 | 0 | 0 | 0 | 60 | 70 | 80 | 90 | Plant response rating, Barnyardgrass ([11]; 125 g ai/ha): 80; Plant response rating, Barnyardgrass ([11]; 500 g ai/ha): 80; Plant response rating, Barnyardgrass ([12]; 125 g ai/ha): 10; Plant response rating, Barnyardgrass ([12]; 500 g ai/ha): 70; Plant response rating, Blackgrass ([13]; 125 g ai/ha): 0; Plant response rating, Blackgrass ([13]; 500 g ai/ha): 30; Plant response rating, Ragweed ([14]; 125 g ai/ha): 0; Plant response rating, Ragweed ([14]; 500 g ai/ha): 90; Plant response rating, Barnyardgrass (0 to 100 scale, 0 is no effect, 100 is complete control) [15]: 0; Plant response rating, Rice (0 to 100 scale, 0 is no effect, 100 is complete control) (rice (Oryza sativa)): 0; Plant response rating, Pigweed ([16]; 125 g ai/ha): 100; Plant response rating, Pigweed ([16]; 500 g ai/ha): 100; Plant response rating, Foxtail, Giant ([17]; 125 g ai/ha): 0; Plant response rating, Foxtail, Giant ([17]; 500 g ai/ha): 90; Plant response rating, Ryegrass, Italian ([18]; 125 g ai/ha): 0; Plant response rating, Ryegrass, Italian ([18]; 500 g ai/ha): 50 |
| Cc1ccc2oc([C@@H](C)Nc3ncc(C(F)(F)F)c(N)n3)cc2c1 [Compound 10] | 50 | 70 | 0 | 0 | 0 | 60 | 0 | 0 | 0 | 20 | 80 | 80 | 90 | 0 | 0 | 0 | 0 | 0 | 0 | 0 | Plant response rating, Barnyardgrass ([11]; 125 g ai/ha): 20; Plant response rating, Barnyardgrass ([11]; 500 g ai/ha): 30; Plant response rating, Barnyardgrass ([12]; 125 g ai/ha): 0; Plant response rating, Barnyardgrass ([12]; 500 g ai/ha): 20; Plant response rating, Blackgrass ([13]; 125 g ai/ha): 0; Plant response rating, Blackgrass ([13]; 500 g ai/ha): 20; Plant response rating, Ragweed ([14]; 125 g ai/ha): 0; Plant response rating, Ragweed ([14]; 500 g ai/ha): 50; Plant response rating, Barnyardgrass (0 to 100 scale, 0 is no effect, 100 is complete control) [15]: 0; Plant response rating, Rice (0 to 100 scale, 0 is no effect, 100 is complete control) (rice (Oryza sativa)): 0; Plant response rating, Pigweed ([16]; 125 g ai/ha): 0; Plant response rating, Pigweed ([16]; 500 g ai/ha): 60; Plant response rating, Foxtail, Giant ([17]; 125 g ai/ha): 0; Plant response rating, Foxtail, Giant ([17]; 500 g ai/ha): 40; Plant response rating, Ryegrass, Italian ([18]; 125 g ai/ha): 0; Plant response rating, Ryegrass, Italian ([18]; 500 g ai/ha): 20 |
| Cc1cc2cc([C@@H](C)Nc3ncc(C(F)(F)F)c(N)n3)oc2cc1C [Compound 11] | 50 | 70 | 0 | 0 | 40 | 80 | 40 | 0 | 0 | 40 | 80 | 80 | 80 | 0 | 0 | 0 | 0 | 10 | 30 | 70 | Plant response rating, Barnyardgrass ([11]; 125 g ai/ha): 20; Plant response rating, Barnyardgrass ([11]; 500 g ai/ha): 70; Plant response rating, Barnyardgrass ([12]; 125 g ai/ha): 20; Plant response rating, Barnyardgrass ([12]; 500 g ai/ha): 30; Plant response rating, Blackgrass ([13]; 125 g ai/ha): 0; Plant response rating, Blackgrass ([13]; 500 g ai/ha): 20; Plant response rating, Ragweed ([14]; 125 g ai/ha): 0; Plant response rating, Ragweed ([14]; 500 g ai/ha): 90; Plant response rating, Barnyardgrass (0 to 100 scale, 0 is no effect, 100 is complete control) [15]: 0; Plant response rating, Rice (0 to 100 scale, 0 is no effect, 100 is complete control) (rice (Oryza sativa)): 0; Plant response rating, Pigweed ([16]; 125 g ai/ha): 20; Plant response rating, Pigweed ([16]; 500 g ai/ha): 100; Plant response rating, Foxtail, Giant ([17]; 125 g ai/ha): 0; Plant response rating, Foxtail, Giant ([17]; 500 g ai/ha): 50; Plant response rating, Ryegrass, Italian ([18]; 125 g ai/ha): 20; Plant response rating, Ryegrass, Italian ([18]; 500 g ai/ha): 30 |
